Results taken from ChEMBL document CHEMBL1133834, “Design and synthesis of Pfmrk inhibitors as potential antimalarial agents” (Bioorg Med Chem Lett, 2001).

Target: T1, Protein kinase Pfmrk (Plasmodium falciparum, UniProt P90584)
T1 sequence (P90584 whole entry): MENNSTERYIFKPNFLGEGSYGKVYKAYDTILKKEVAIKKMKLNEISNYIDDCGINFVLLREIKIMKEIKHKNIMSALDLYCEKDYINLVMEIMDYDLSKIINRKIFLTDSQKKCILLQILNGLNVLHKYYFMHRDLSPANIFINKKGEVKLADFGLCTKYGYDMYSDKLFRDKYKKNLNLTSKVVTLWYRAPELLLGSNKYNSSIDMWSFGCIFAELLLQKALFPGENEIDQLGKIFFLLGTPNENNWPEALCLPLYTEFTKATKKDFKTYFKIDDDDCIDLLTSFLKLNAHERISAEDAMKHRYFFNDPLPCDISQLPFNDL
Experiment: Inhibition of Plasmodium falciparum cyclin dependent protein kinase (Pfmrk); call rule not given here

IC50 | Structure (SMILES)
187 µM | Oc1ccc2nc3oc4ccccc4c3c(O)c2c1
< 371 µM | Oc1c2ccccc2nc2oc3ccccc3c12
539 µM | Oc1ccc2nc(O)c3c4ccccc4oc3c2c1
18 µM | OCCOc1cccc(-c2cc3ccccc3nc2O)c1
102 µM | O=C(O)COc1cccc(-c2cc3ccccc3nc2O)c1

Target: T1, Protein kinase Pfmrk
Experiment: Inhibition of Plasmodium falciparum cyclin dependent protein kinase (No inhibition)

IC50 | Structure (SMILES)
Not Active | Oc1nc2ccccc2c2oc3ccccc3c12
Not Active | Oc1[nH]c2ccccc2c2nc3ccccc3c1-2
